Reference: publication PMC12998938, “Neutrophil store-operated Ca^2+ entry: A correctable biomarker of cystic fibrosis lung disease progression” (Journal of cystic fibrosis : official journal of the …, 2025)

Assays:
[1] = tested on: SOCE/Orai1 in non-CF peripheral blood neutrophils; test: Fluo-4 Ca2+ assay, global thapsigargin-stimulated Ca2+ response (SOCE), non-CF neutrophils; format: cell-based, human; conditions: 10 μM peptide, 3 h pre-treatment, 1 μM thapsigargin, N = 10 donors
Procedure: (§1) Neutrophils were immediately isolated by negative selection from deidentified blood samples using an EasySep human neutrophil isolation kit (Stem Cell Technologies) as described. Cytosolic Ca^2+ was measured using Fluo-4 as described. Protein lysate from isolated blood neutrophils was characterized by liquid chromatography with tandem mass spectrometry (LC-MS/MS) as described. Degranulation products in media were quantified by Luminex assay using a custom Bio-Plex human kit (BioRad) per the manufacturer’s protocol […]. Detailed methods for all experiments and measurements are provided in an online data supplement.
(§2) Isolated neutrophils were incubated with peptide or vehicle control for 3 h. For the final hour of treatment, cells were loaded with Fluo-4 direct (Thermofisher) for 45 min at 37°C and 15 min at room temperature as described.
(§3) Fluo-4 Ca^2+ assays. Isolated neutrophils were incubated with peptide or vehicle control for 3 h. For the final hour of treatment, cells were loaded with Fluo-4 direct (Thermofisher) for 45 min at 37°C and 15 min at room temperature. For global Ca^2+ measurements, baseline fluorescent readings were made for 2 min (1 read every 30 s) using a Tecan Infinite M1000 plate reader (ex 494 em 516 nm, bandwidth 5 nm) before thapsigargin (Sigma-Aldrich) was added and the change in emission was recorded for 10 min (1 read every 30 s). To isolate phases of store operated Ca^2+ entry, cells underwent 3 rounds of centrifugation and resuspension in Ca^2+-free Ringer’s solution to remove extracellular Ca^2+. Baseline fluo-4 fluorescence was read for 2 min before cell were stimulated with thapsigargin (Tocris). Reads continued for ~5 min before 1.2 mM Ca^2+ was added to the extracellular solution and SOCE was measured for ~10 mins. For analysis, all fluo-4 fluorescence reads are normalized to baseline.

[2] = tested on: SOCE/Orai1 in CF peripheral blood neutrophils; test: Fluo-4 Ca2+ assay, global thapsigargin-stimulated Ca2+ response (SOCE), CF neutrophils; format: cell-based, human
Procedure: as §1, §2, §3

[3] = tested on: ER Ca2+ store release in non-CF neutrophils; test: Fluo-4 ER Ca2+ release, non-CF neutrophils; format: cell-based, human; conditions: 3 h pre-treatment, 1 μM thapsigargin, no extracellular Ca2+, 2 donors in triplicate
Procedure: as §2
(§4) Fig. 3. ELD607 inhibits SOCE in non-CF and CF neutrophils. (A) and (B) Mean changes in fluo-4 fluorescence as a marker of cytoplasmic Ca^2+ levels in non-CF and CF neutrophils respectively before and after stimulation with 1 μM thapsigargin (Tg). Before stimulation, neutrophils were exposed to vehicle (0.1% DMSO in PBS), 10 μM ELD607 or scrambled peptide (control) for 3 h. N = 10 non-CF and 21 CF donors. Stats show ELD607 vs vehicle or scrambled peptide based on color. […] Neutrophils were stimulated with thapsigargin (1 μM) in the absence of extracellular Ca^2+ to allow the release of Ca^2+ stores to be measured. Extracellular Ca^2+ was then returned so that extracellular Ca^2+ influx could be measured. (C) Mean fold change in Fluo-4 fluorescence during ER store release in non-CF and CF neutrophils. […] (E) Mean fold change in fluo-4 fluorescence during Ca^2+ influx in non-CF and CF neutrophils. […]
(§5) SOCE has 2 phases: release of Ca^2+ from ER stores and Ca^2+ influx from the extracellular space via Ca^2+ channels such as Orai1. […] Once the stores had emptied, extracellular Ca^2+ was reintroduced and Ca^2+ influx was measured (Fig. 3C–F). […]

[4] = tested on: ER Ca2+ store release in CF neutrophils; test: Fluo-4 ER Ca2+ release, CF neutrophils; format: cell-based, human; conditions: 3 h pre-treatment, 1 μM thapsigargin, no extracellular Ca2+, 3 donors in triplicate, curves non-CF vs CF p<0.0001
Procedure: as §2, §4, §5

Orai1 = test: SOCE in triple knockout HEK293T cells transfected with Orai1; format: cell-based; conditions: TKO + Orai1, vs wild-type HEK293T; thapsigargin; dose response; 7-9 replicates; Orai1, 2, 3 plots differ p<0.001
Excerpt: (§6) We hypothesized that inhibiting SOCE in CF neutrophils may reduce the secretion of neutrophil elastase and other proteins associated with CF lung disease. To validate ELD607’s specificity for Orai1 over Orai2 and Orai3, we first evaluated ELD607 function in HEK293T cells that had Orai1, Orai2 and Orai3 stably knocked out. […] Next we evaluated ELD607’s ability to inhibit SOCE in non-CF and CF neutrophils.
(§7) Supplemental figure 3. […] Dose responses of thapsigargin-induced changes in cytoplasmic Ca^2+ concentrations. These studies were performed in HEK293T where Orai1, Orai2 and Orai3 had been stably knocked down (triple knockout cells, TKO) or in TKO cells that were transiently transfected with Orai1, Orai2 or Orai3 as indicated. All data are from 7-9 replicates per data point from 3 separate experiments.

Orai2 = test: SOCE in triple knockout HEK293T cells transfected with Orai2; format: cell-based
Excerpt: as §6, §7

[5] = tested on: bacterial lung infections in mice; conditions: cited from earlier work
Excerpt: In ... || CF neutrophils with elevated SOCE undergo more degranulation, leading to greater release of proteases/pro-inflammatory mediators. Therefore, increased SOCE may be a driving force for declining CF lung function. However, there is much to do to fully understand this phenomenon, and our data identify an association, not a causality. […] To date, several blood biomarkers have been identified as predictors of CF lung disease. Most biomarkers ( ...

[6] = tested on: Pseudomonas aeruginosa-infected mice; conditions: ref [21], cited from earlier work
[7] = murine models of bacterial lung infections, ref [21]

## VHDIVNMLIRG [ELD607, size-optimized SPLUNC1/α6 peptidomimetic]
[1]
  inhibition of SOCE (global Ca2+ response): significantly inhibited SOCE regardless of genotype
[2]; CF, 10 μM peptide, 3 h pre-treatment, 1 μM thapsigargin, Fluo-4, N = 21 donors
  inhibition of SOCE (global Ca2+ response): significantly inhibited SOCE regardless of genotype
[2]; neutrophils (discussion of Fig. 3)
  completeness of inhibition of Ca2+ signaling: not 100% inhibited
[3]
  inhibition of ER Ca2+ release: little effect
[4]
  IC50: 413 nM
Orai1
  sensitivity of SOCE to ELD607: restored the sensitivity to ELD607 seen in wild-type HEK293T cells
Orai2; TKO + Orai2, thapsigargin, dose response, 7-9 replicates
  sensitivity of SOCE to ELD607: relatively insensitive
Orai2; discussion summary of supplemental figure 3
  specificity for Orai1: effect on Orai2: little effect on Orai2 and Orai3
[5]; inhaled ELD607, ref [53]
  neutrophilia caused by bacterial infections: abolished neutrophilia
[5]; [7]
  neutrophilia and lung damage: reduced neutrophilia and lung damage
  survival: increased survival
[5]; wild-type mice, alveolar macrophages depleted, ref [21]
  beneficial effects after depletion of alveolar macrophages: abolished the beneficial effects of ELD607
[6]; P. aeruginosa-infected mice
  neutrophilia and neutrophil elastase release: reduces neutrophilia and neutrophil elastase release
[6]; mice, P. aeruginosa, reduced lung injury, increased survival
  neutrophil influx into the lungs: reduces neutrophil influx into the lungs of mice
